Several values for one entry are separate records, joined by “and”; a condition that tells them apart may be missing. Identical values can stand only once. Marks after values point to notes of the source that are not given here.
What was measured:
[1] = Spectroscopic data (absorption, emission, fluorescence quantum yield) in CH3CN; format: physicochemical
Procedure: Reagents and solvents were purchased from various commercial sources and used without further purification unless otherwise stated. CH3CN (OmniSolv, EMD) were directly used in titration experiments without purification. All reactions were carried out in oven- or flame-dried glassware. Analytical thin-layer chromatography (TLC) was performed using pre-coated TLC plates with silica gel 60 F254 (EMD) or with aluminum oxide 60 F254 neutral (EMD). Flash column chromatography was performed using 40-63 μm (230-400 mesh ASTM) silica gel (EMD) or alumina (80-200 mesh, pH 9-10, EMD) as the stationary phases. Silica and alumina gel was flame-dried under vacuum to remove absorbed moisture before use. ^1H NMR spectra were recorded at 300 MHz on a Varian Mercury spectrometer. ^13C NMR spectra were recorded at 125 MHz, on a Bruker Avance spectrometer. All chemical shifts were reported in δ units relative to tetramethylsilane. High resolution mass spectra were obtained at the Mass Spectrometry Laboratory at Florida State University. ESI spectra were obtained on a JEOL AccuTOF spectrometer. Spectrophotometric and fluorometric titrations were conducted on a Varian Cary 100 Bio UV-Visible Spectrophotometer and a Varian Cary Eclipse Fluorescence Spectrophotometer, respectively, with a 1-cm standard quartz cell. The fluorescence quantum yield was determined by comparison of the integrated area of corrected emission spectrum with reference of N,N′-di-n-octyl-2,6-di-n-octylamino-1,4,5,8-naphthalenetetracarboxylic acid diimide (φf=0.53 in CH2Cl2) as the reference by the literature method. See Thalacker, C.; Röger, C.; Würthner, F. J. Org.

[2] = Absorption and fluorescence titration of the indicator with ZnCl2 in CH3CN; format: binding
Procedure: FIG. 3 is a graph depicting fluorescence intensity increase (F/F0 at 630 nm) of zinc(II) ion indicator (4) (3.0 μM), with increasing [ZnCl2]. The solid line is the fitting curve of F/F0 vs. [Zn^2+] based on a 1:1 binding isotherm equation. See Zhu, L.; Zhong, Z.; Anslyn, E. V. J. Am. Chem. Soc. 2005, 127, 4260-4269.
FIGS. 4A and 4B are graphs depicting (4A) Absorption spectra for the titration of zinc(II) ion indicator (4) (3.0 μM) with ZnCl2 (0-18 μM) in CH3CN, and (4B) Fluorescence spectral change of zinc(II) ion indicator (4) (3.0 μM) with different concentrations of ZnCl2 (0-18 μM) in CH3CN (λex 400 nm).
FIG. 5 is a graph depicting fluorescence spectral change of zinc(II) ion indicator (4) (2.5 μM) with different concentrations of ZnCl2 (0-16 μM) in CH3CN (λex=600 nm).
The syntheses of the separate FRET donor and acceptor systems (1-3) and indicators for zinc(II) (4, 5) are described in the examples. Absorption spectrum of zinc(II) ion indicator compound (4) in CH3CN consists of two bands over 300 nm (FIG. 4A). The band centered at 346 nm corresponds to the absorption of the bipy-containing FRET donor moiety, which we term the D band. The band centered at 600 nm corresponds to the NDI moiety which is termed the A band. Upon addition of increasing amount of ZnCl2, as a result of zinc(II) coordination at the bipy moiety, the charge-transfer D band undergoes a bathochromic shift from 346 nm to 370 nm. The A band, meanwhile, experiences a slight hypochromic shift.
The fluorescence titration profile of zinc(II) ion indicator compound (4) with ZnCl2 upon excitation at 400 nm is shown in FIG. 4B. […] This signal may have arisen from the direct excitation of the NDI component. Upon addition of increasing amount of ZnCl2 from 0-18 μM, the emission at 630 nm intensifies, and reaches saturation with 12-fold enhancement in integrated intensity (See Table 1 for spectroscopic data). […] These observations are consistent with the involvement of a zinc(II)-modulated intramolecular excitation energy transfer process. Furthermore, the differed sensitivity to excitation wavelength of zinc(II) ion indicator (4) offers an opportunity to correlate [Zn^2+] and fluorescence change ratiometrically. […]
Reagents and solvents were purchased from various commercial sources and used without further purification unless otherwise stated. […] Silica and alumina gel was flame-dried under vacuum to remove absorbed moisture before use. ^1H NMR spectra were recorded at 300 MHz on a Varian Mercury spectrometer. ^13C NMR spectra were recorded at 125 MHz, on a Bruker Avance spectrometer. […] Spectrophotometric and fluorometric titrations were conducted on a Varian Cary 100 Bio UV-Visible Spectrophotometer and a Varian Cary Eclipse Fluorescence Spectrophotometer, respectively, with a 1-cm standard quartz cell. […]

[3] = Fluorescence response to various metal ions (metal ion selectivity); settings: indicator 3.0 μM, 1:9 water/CH3CN pH 7.2, λex 400 nm
Procedure: FIG. 8 is a chart depicting fluorescence spectroscopic responses of zinc(II) ion indicator (4) (3.0 μM, λex 400 nm) to various metal ions in 1:9 water/CH3CN mixture at pH 7.2 (30 mM of MOPS buffer). Clear bars represent intensity in the presence of various metal ions (perchlorate salt). Metal ion concentrations of Na^+, K^+, Ca^2+, Mg^2+ were 1.0 mM and for other ions 30 μM. Hatch marked bars represent the fluorescence following subsequent addition of Zn(ClO4)2 (30 μM).
The fluorescence dependence of zinc(II) ion indicator (4) on the identity of metal ion was evaluated (FIG. 8). […] The observed metal ion selectivity can be understood based on the Irving-Williams series and HSAB theory.

COCCCNc1cc2c3c(c(NCCOc4ccc(/C=C/c5ccc(-c6ccc(COCCOCCOC)cn6)nc5)cc4)cc4c3c1C(=O)N(CCCOC)C4=O)C(=O)N(CCCOC)C2=O [Compound (4)]
λabs (A band) ([1]; complexes: Zn(ClO4)2 10 equiv.): 600 nm and 600 (A) nm | λabs (D band) ([1]; complexes: Zn(ClO4)2 10 equiv.): 346 nm and 346 (D) nm | λem ([1]; complexes: Zn(ClO4)2 10 equiv.): 633 nm | ∈/10^3 (A band) ([1]; complexes: Zn(ClO4)2 10 equiv.): 22 10^3 M^-1 cm^-1 | ∈/10^3 (D band) ([1]; complexes: Zn(ClO4)2 10 equiv.): 76 10^3 M^-1 cm^-1 | φf ([1]; λex = 565 nm): 0.41^c | enhancement in integrated intensity of emission at 630 nm at saturation ([2]; CH3CN, ZnCl2 0-18 μM, λex 400 nm): 12 fold | D band absorption after bathochromic shift upon addition of ZnCl2 ([2]; CH3CN, increasing ZnCl2): 370 nm | fluorescence intensity on variation of zinc(II) concentration when NDI is directly excited ([2]; CH3CN, λex 600 nm): not affected much | Kd ([2]; indicator 3.0 μM, F/F0 at 630 nm vs [ZnCl2], fit to 1:1 binding isotherm, read-out: Dissociation constant Kd): 9.1 µM | fluorescence response to cadmium(II) ([3]; 30 μM metal ion): acts similarly to zinc(II) in resulting strong fluorescence from NDI | fluorescence response to iron(II) and copper(II) ([3]; 30 μM metal ion): quench fluorescence | fluorescence response to manganese(II) and lead(II) ([3]; 30 μM metal ion): fail to alter the fluorescence | fluorescence response to alkali and alkaline earth metal ions ([3]; Na+, K+, Ca2+, Mg2+ 1.0 mM): do not elicit a fluorescence response

From patent US20130071936A1, “FRET-BASED ZINC(II) ION INDICATOR” (The Florida State University Research Foundation, Inc., priority 2011, published 2013)
